{"source": "patent US20090088380A1", "about": "“GHRH ANALOGS AND THERAPEUTIC USES THEREOF” (priority 2007, published 2009)", "system": "endogenous GH secretion", "assay": "Phase II CKD: 24-hour GH profile and deconvolution", "type": "in vivo, human", "conditions": "ITT", "procedure": "Blood samples for assessment of GH secretion had to be taken over 24 hours because the release of endogenous GH was pulsatile and not consistent throughout the day. Much of endogenous GH release is closely coupled to periods of slow-wave sleep, and the bulk of GH secretion usually occurs between midnight and 4 am. […] To document clearly the effect of the GHRH(1-29)NH2 synthetic analog on endogenous GH secretion, the following protocol had been designed: first, baseline endogenous GH secretion was assessed on Day 0 by sampling blood every 20 minutes for 20 hours and every 10 minutes for 4 hours. At the end of this sampling period (in the afternoon of Day 1), the first injection of the GHRH(1-29)NH2 synthetic analog was given. At the end of the 4-week treatment period (Day 28), GH secretion was reassessed by another 24-hour secretion profile. This profile started at 8:30 am with the morning injection of the GHRH(1-29)NH2 synthetic analog. Blood was collected every 10 minutes for the first 4 hours, followed by sampling every 20 minutes for the next 20 hours; this period included the afternoon injection of the GHRH(1-29)NH2 synthetic analog. In this way, it was possible to assess the evolution of both the pituitary's immediate GHRH response and that of time-integrated 24-hour GH secretion over extended treatment.\nOn Day 0 (baseline) and Day 28, subjects commenced 24-hour sampling at 10 and 20-minute intervals to construct a GH profile. […] The cannula was flushed with heparin-saline solution after each blood withdrawal to prevent clotting. Immediately before each blood collection, the residual heparin-saline volume instilled in the cannula was withdrawn with 0.5 mL blood in a separate syringe. This volume was reinjected after collection of the sample used for GH analysis.\nAt the baseline visit, blood sampling for the 24-hour GH profile commenced on Day 0 by taking samples at 20-minute intervals for 20 hours. Immediately at the end of this period, on the morning of Day 1, samples were taken at 10-minute intervals for 4 hours. The first dose of investigational product was not given before the end of the 24-hour GH profile period. On Day 28, samples were taken pre-dose, at 10-minute intervals for the first 4 hours (at the same time of day as the 4-hour period on Day 1) and at 20-minute intervals thereafter for a further 20 hours.\nSamples were analysed for GH at the Department of Nephrology, Endocrinology and Metabolic Diseases, Silesian University School of Medicine, Katowice, Poland using a commercial kit.", "key": {"[1]": {"conditions": "GH deconvolution, Day 28, vs placebo"}}, "note": "“And” between values parts separate entries of the source, which are not always exact repeats. Identical values can stand only once. Non-standard residues stand in square brackets, D forms with d. Residues, ends and D or L forms follow the SMILES beside them."}
{"compound": "CC[C@H](C)[C@H](NC(=O)[C@H](C)NC(=O)[C@H](CC(=O)O)NC(=O)[C@@H](C)NC(=O)[C@@H](N)Cc1ccc(O)cc1)C(=O)N[C@@H](Cc1ccccc1)C(=O)N[C@H](C(=O)N[C@@H](CC(N)=O)C(=O)N[C@@H](CO)C(=O)N[C@H](Cc1ccc(O)cc1)C(=O)N[C@@H](CCCNC(=N)N)C(=O)N[C@@H](CCCCN)C(=O)N[C@H](C(=O)N[C@@H](CC(C)C)C(=O)N[C@H](C)C(=O)N[C@@H](CCC(N)=O)C(=O)N[C@@H](CC(C)C)C(=O)N[C@@H](CO)C(=O)N[C@@H](C)C(=O)N[C@@H](CCCNC(=N)N)C(=O)N[C@@H](CCCCN)C(=O)N[C@@H](CCCCN)C(=O)N[C@@H](CC(C)C)C(=O)N[C@@H](CCC(N)=O)C(=O)N[C@@H](CC(=O)O)C(=O)N[C@H](C(=O)N[C@@H](CCSC)C(=O)N[C@@H](CO)C(=O)N[C@@H](CCCNC(=N)N)C(N)=O)[C@@H](C)CC)C(C)C)[C@@H](C)O", "note": "[GHRH analog #5, [D-Ala^2, D-Tyr^10, D-Ala^15, Lys^22] hGHRH(1-29)-NH2] (H-Y[dA]DAIFTNS[dY]RKVL[dA]QLSARKKLQDIMSR-NH2)", "values": [{"measurement": "1st component half-life: median", "setting": "GH deconvolution, Baseline", "result": 6, "unit": "min"}, {"measurement": "2nd component half-life: median", "setting": "GH deconvolution, Baseline", "result": 16, "unit": "min"}, {"measurement": "% pulsatile secretion rate: mean (SD)", "setting": "GH deconvolution, Baseline", "result": "79.02 (9.09) %"}, {"measurement": "Basal secretion rate: median", "setting": "GH deconvolution, Baseline", "result": 27, "unit": "mU/L/24 h"}, {"measurement": "Inter-pulse regularity: mean (SD)", "setting": "GH deconvolution, Baseline", "result": "2.35 (0.63)"}, {"measurement": "Mass per pulse: mean (SD)", "setting": "GH deconvolution, Baseline", "result": "11.30 (7.02) mU/L"}, {"measurement": "Mean pulse frequency (per 24 h): mean (SD)", "setting": "GH deconvolution, Baseline", "result": "8.09 (2.81) per 24 h"}, {"measurement": "Number of pulses: mean (SD)", "setting": "GH deconvolution, Baseline", "result": "8.8 (3.2)"}, {"measurement": "Pulsatile secretion rate: median", "setting": "GH deconvolution, Baseline", "result": 100, "unit": "mU/L/24 h"}, {"measurement": "Time from onset to peak of burst: mean (SD)", "setting": "GH deconvolution, Baseline", "result": "32.8 (3.9) min"}, {"measurement": "Total secretion rate: median", "setting": "GH deconvolution, Baseline", "result": 120, "unit": "mU/L/24 h"}, {"measurement": "1st component half-life: median", "setting": "GH deconvolution, Day 28", "result": 2, "unit": "min"}, {"measurement": "2nd component half-life: comparison vs placebo", "setting": "GH deconvolution, Day 28", "result": 4.8}, {"measurement": "2nd component half-life: median", "setting": "GH deconvolution, Day 28", "result": 26, "unit": "min"}, {"measurement": "% pulsatile secretion rate: comparison vs placebo", "setting": "GH deconvolution, Day 28", "result": "−0.4"}, {"measurement": "% pulsatile secretion rate: mean (SD)", "setting": "GH deconvolution, Day 28", "result": "71.27 (16.24) %"}, {"measurement": "Basal secretion rate: median", "setting": "GH deconvolution, Day 28", "result": 98, "unit": "mU/L/24 h"}, {"measurement": "Inter-pulse regularity: comparison vs placebo", "setting": "GH deconvolution, Day 28", "result": "−0.0"}, {"measurement": "Inter-pulse regularity: mean (SD)", "setting": "GH deconvolution, Day 28", "result": "1.95 (0.30)"}, {"measurement": "Mass per pulse: comparison vs placebo", "setting": "GH deconvolution, Day 28", "result": 26.5}, {"measurement": "Mass per pulse: mean (SD)", "setting": "GH deconvolution, Day 28", "result": "43.88 (36.16) mU/L"}, {"measurement": "Mean pulse frequency (per 24 h): mean (SD)", "setting": "GH deconvolution, Day 28", "result": "9.07 (3.49) per 24 h"}, {"measurement": "Mean pulse frequency: comparison vs placebo", "setting": "GH deconvolution, Day 28", "result": 0.8}, {"measurement": "Number of pulses: comparison vs placebo", "setting": "GH deconvolution, Day 28", "result": 0.3}, {"measurement": "Number of pulses: mean (SD)", "setting": "GH deconvolution, Day 28", "result": "9.7 (3.7)"}, {"measurement": "Pulsatile secretion rate: median", "setting": "GH deconvolution, Day 28", "result": 378, "unit": "mU/L/24 h"}, {"measurement": "Time from onset to peak of burst: comparison vs placebo", "setting": "GH deconvolution, Day 28", "result": "−4.5"}, {"measurement": "Time from onset to peak of burst: mean (SD)", "setting": "GH deconvolution, Day 28", "result": "27.3 (4.7) min"}, {"measurement": "Total secretion rate: median", "setting": "GH deconvolution, Day 28", "result": 495, "unit": "mU/L/24 h"}, {"measurement": "Basal secretion rate: comparison or ratio of means", "setting": "[1]", "result": 2.53}, {"measurement": "Pulsatile secretion rate: comparison or ratio of means", "setting": "[1]", "result": 2.81}, {"measurement": "Total secretion rate: comparison or ratio of means", "setting": "[1]", "result": 2.72}, {"measurement": "GH AUC first 4 hours: increase from baseline to day 28", "result": 1137, "unit": "%"}, {"measurement": "GH AUC at 4 h: median", "setting": "Baseline", "result": 315, "unit": "μIU/mL × min"}, {"measurement": "GH AUC at 24 h: median", "setting": "Baseline", "result": 3473, "unit": "μIU/mL × min"}, {"measurement": "GH SD at 4 h: median", "setting": "Baseline", "result": 1.0, "unit": "μIU/mL"}, {"measurement": "GH SD at 24 h: median", "setting": "Baseline", "result": 2.9, "unit": "μIU/mL"}, {"measurement": "GH concentration at 4 h: median", "setting": "Baseline", "result": 1.3, "unit": "μIU/mL"}, {"measurement": "GH concentration at 24 h: median", "setting": "Baseline", "result": 2.1, "unit": "μIU/mL"}, {"measurement": "Mean concentration of GH secreted during the first 4 hours", "setting": "Baseline", "result": 1.72, "unit": "μIU/ml"}, {"measurement": "GH AUC at 4 h: median", "setting": "Day 28", "result": 3891, "unit": "μIU/mL × min"}, {"measurement": "GH AUC at 24 h: difference vs placebo", "setting": "Day 28", "result": 11585, "unit": "μIU/mL × min"}, {"measurement": "GH AUC at 24 h: median", "setting": "Day 28", "result": 16753, "unit": "μIU/mL × min"}, {"measurement": "GH SD at 4 h: median", "setting": "Day 28", "result": 11.6, "unit": "μIU/mL"}, {"measurement": "GH SD at 24 h: median", "setting": "Day 28", "result": 13.3, "unit": "μIU/mL"}, {"measurement": "GH concentration at 4 h: median", "setting": "Day 28", "result": 16.2, "unit": "μIU/mL"}, {"measurement": "GH concentration at 24 h: comparison vs placebo", "setting": "Day 28", "result": 9.5}, {"measurement": "GH concentration at 24 h: median", "setting": "Day 28", "result": 12.5, "unit": "μIU/mL"}, {"measurement": "GH AUC at 4 h: ratio", "setting": "Day 28, vs placebo", "result": "9.5 and 9.49"}, {"measurement": "GH SD at 4 h: comparison or ratio of means", "setting": "Day 28, vs placebo", "result": 6.97}, {"measurement": "GH SD at 24 h: comparison or ratio of means", "setting": "Day 28, vs placebo", "result": 3.92}]}
